Measured values taken from PubChem BioAssay AID248 (DTP/NCI, 2004).
Several values for one entry are separate records, joined by “and”; a condition that tells them apart may be missing. Identical values can stand only once. Inconclusive results and toxic doses are left out.

Tested on: L1210 leukemia ip in BDF1 mice, survival T/C
Assay: NCI In Vivo Anticancer Drug Screen. Data for tumor model L1210 Leukemia (intraperitoneal) in B6D2F1 (BDF1) mice
Settings: endpoint: mean survival time, higher = longer survival
How it was run: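 Ratio derived from survival: compound-dosed mice over vehicle-dosed mice, all bearing a transplantable tumor.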

[1] = dose: 100.0 mg/kg/injection, schedule: Q04DX003 (ip), vehicle: saline
[2] = dose: 200.0 mg/kg/injection, schedule: Q04DX003 (ip), vehicle: saline
[3] = dose: 400.0 mg/kg/injection, schedule: Q04DX003 (ip), vehicle: saline

O=C(NCCCCCCCCCCNC(=O)N1CC1)N1CC1
T/C (dose: 0.12 mg/kg/injection, schedule: Q01DX Z (ip), vehicle: carboxymethylcellulose (CMC)): 94 % of control
T/C (dose: 0.25 mg/kg/injection, schedule: Q01DX Z (ip), vehicle: carboxymethylcellulose (CMC)): 96 % of control
T/C (dose: 0.4 mg/kg/injection, schedule: Q01DX Z (ip), vehicle: carboxymethylcellulose (CMC)): 115 % of control
T/C (dose: 0.5 mg/kg/injection, schedule: Q01DX Z (ip), vehicle: carboxymethylcellulose (CMC)): 108 % of control
T/C (dose: 0.5 mg/kg/injection, schedule: Q01DX Z (ip), vehicle: saline): 110 % of control
T/C (dose: 0.8 mg/kg/injection, schedule: Q01DX Z (ip), vehicle: carboxymethylcellulose (CMC)): 123 % of control
T/C (dose: 0.8 mg/kg/injection, schedule: Q01DX Z (ip), vehicle: saline): 113 % of control
T/C (dose: 1.0 mg/kg/injection, schedule: Q01DX Z (ip), vehicle: carboxymethylcellulose (CMC)): 118 % of control
T/C (dose: 1.2 mg/kg/injection, schedule: Q01DX Z (ip), vehicle: saline): 124 % of control
T/C (dose: 1.8 mg/kg/injection, schedule: Q01DX Z (ip), vehicle: carboxymethylcellulose (CMC)): 155 % of control
T/C (dose: 1.8 mg/kg/injection, schedule: Q01DX Z (ip), vehicle: saline): 118 % of control
T/C (dose: 2.6 mg/kg/injection, schedule: Q01DX Z (ip), vehicle: carboxymethylcellulose (CMC)): 155 % of control and 160 % of control
T/C (dose: 2.7 mg/kg/injection, schedule: Q01DX Z (ip), vehicle: saline): 168 % of control
T/C (dose: 4.0 mg/kg/injection, schedule: Q01DX Z (ip), vehicle: carboxymethylcellulose (CMC)): 119 % of control
T/C (dose: 5.0 mg/kg/injection, schedule: Q01DX001 (ip), vehicle: saline): 119 % of control
T/C (dose: 6.0 mg/kg/injection, schedule: Q01DX Z (ip), vehicle: carboxymethylcellulose (CMC)): 96 % of control
T/C (dose: 6.0 mg/kg/injection, schedule: Q01DX Z (ip), vehicle: saline): 112 % of control

O=S(=O)(Cc1ccccc1)/C(=C\c1ccccc1)c1ccccc1
T/C (dose: 50.0 mg/kg/injection, schedule: Q01DX001 (ip), vehicle: saline): 105 % of control
T/C (dose: 100.0 mg/kg/injection, schedule: Q01DX001 (ip), vehicle: saline): 105 % of control
T/C (dose: 200.0 mg/kg/injection, schedule: Q01DX001 (ip), vehicle: saline): 105 % of control
T/C (dose: 400.0 mg/kg/injection, schedule: Q01DX001 (ip), vehicle: saline): 103 % of control

CCN(CC)C(=O)c1ccccc1
T/C [1]: 103 % of control
T/C [2]: 110 % of control
T/C [3]: 105 % of control

CCOC(=O)/C(C#N)=C/c1cccn1Cc1cc(OC)cc(OC)c1
T/C (dose: 25.0 mg/kg/injection, schedule: Q04DX002 (ip), vehicle: saline): 111 % of control
T/C (dose: 50.0 mg/kg/injection, schedule: Q04DX002 (ip), vehicle: saline): 101 % of control
T/C (dose: 100.0 mg/kg/injection, schedule: Q04DX002 (ip), vehicle: saline): 94 % of control

CCOC(CN=Cc1ccc(Cl)c(Cl)c1)OCC
T/C (dose: 100.0 mg/kg/injection, schedule: Q04DX003 (ip), vehicle: Klucel (hydroxypropylcellulose) (HPC)): 94 % of control
T/C (dose: 200.0 mg/kg/injection, schedule: Q04DX003 (ip), vehicle: Klucel (hydroxypropylcellulose) (HPC)): 97 % of control
T/C (dose: 400.0 mg/kg/injection, schedule: Q04DX003 (ip), vehicle: Klucel (hydroxypropylcellulose) (HPC)): 96 % of control

CCOC(=O)C/C(C(=O)O)=C(\C)c1ccc2ccccc2c1
T/C (dose: 100.0 mg/kg/injection, schedule: Q01DX001 (ip), vehicle: Klucel (hydroxypropylcellulose) (HPC)): 101 % of control
T/C (dose: 100.0 mg/kg/injection, schedule: Q01DX009 (ip), vehicle: Klucel (hydroxypropylcellulose) (HPC)): 95 % of control
T/C (dose: 200.0 mg/kg/injection, schedule: Q01DX001 (ip), vehicle: Klucel (hydroxypropylcellulose) (HPC)): 95 % of control
T/C (dose: 200.0 mg/kg/injection, schedule: Q01DX009 (ip), vehicle: Klucel (hydroxypropylcellulose) (HPC)): 100 % of control
T/C (dose: 400.0 mg/kg/injection, schedule: Q01DX001 (ip), vehicle: Klucel (hydroxypropylcellulose) (HPC)): 95 % of control
T/C (dose: 400.0 mg/kg/injection, schedule: Q01DX009 (ip), vehicle: Klucel (hydroxypropylcellulose) (HPC)): 86 % of control

CC1=CC(=O)OC(C)(C)C1
T/C [1]: 97 % of control
T/C [2]: 96 % of control
T/C [3]: 99 % of control
